DBAASP
In brackets after ≈: the same amount, converted by molar mass.

What was measured:
Test in all cases: ≥ marks a high value that may be exact or a test limit, other limits are often not marked, values filed in µg/mL are converted to µM
[1] = tested on: Staphylococcus aureus IFO 12732
[2] = tested on: Bacillus subtilis IFO 3134
[3] = tested on: Escherichia coli IFO 12734
[4] = tested on: Pseudomonas aeruginosa IFO 12582
[5] = tested on: Acinetobacter baumannii NM35
[6] = tested on: Xanthomonas fragariae Xf349-9A
[7] = tested on: Erwinia amylovora PMV 6076
[8] = tested on: Stenotrophomonas maltophilia U8908
[9] = tested on: Pseudomonas aeruginosa ATCC 27853
[10] = tested on: Candida albicans ATCC 90028
[11] = tested on: Stenotrophomonas maltophilia B32/1
[12] = tested on: Staphylococcus aureus S908
[13] = tested on: Staphylococcus epidermidis T37/8
[14] = tested on: Acinetobacter baumannii NM109
[15] = tested on: Staphylococcus aureus 127/08
[16] = tested on: Pseudomonas syringae pv. syringae EPS 94
[17] = tested on: Xanthomonas arboricola pv. pruni CFBP 5563
[18] = tested on: Stenotrophomonas maltophilia B6/2
[19] = tested on: Acinetobacter baumannii NM124
[20] = tested on: Staphylococcus epidermidis RP62A
[21] = tested on: Acinetobacter baumannii NM8
[22] = tested on: Acinetobacter baumannii NM75
[23] = tested on: Staphylococcus aureus V4180
[24] = tested on: Staphylococcus aureus 145/08
[25] = tested on: Staphylococcus aureus ATCC 25923
[26] = tested on: Escherichia coli ATCC 25726
[27] = tested on: Enterococcus faecalis ATCC 29212
[28] = tested on: Xanthomonas campestris pv. Vesicatoria 2133-2
[29] = tested on: Staphylococcus aureus 274/08
[30] = tested on: Pseudomonas syringae pv. actinidiae Psa3700.1.1
[31] = tested on: Staphylococcus aureus T4/6
[32] = tested on: Staphylococcus epidermidis RP62A/1
[33] = tested on: Staphylococcus epidermidis T6/19
[34] = tested on: Stenotrophomonas maltophilia B5/5
[35] = tested on: Stenotrophomonas maltophilia B32/4
[36] = tested on: Klebsiella pneumoniae ATCC 700603
[37] = tested on: Escherichia coli NIHJ JC-2
[38] = tested on: Staphylococcus aureus FDA 209P
[39] = tested on: Pseudomonas aeruginosa U-31
[40] = tested on: Bacillus subtilis PCI 219
[41] = tested on: Proteus vulgaris ATCC 6380
[42] = tested on: Pseudomonas aeruginosa ATCC 9027
[43] = tested on: Micrococcus luteus ATCC 9341
[44] = tested on: Staphylococcus aureus ATCC 6538
[45] = tested on: Escherichia coli ATCC 2592
Staphylococcus aureus = tested on: Staphylococcus aureus
[46] = tested on: Candida albicans ATCC 36232
[47] = tested on: Staphylococcus epidermidis
[48] = tested on: Staphylococcus aureus A170
Escherichia coli W160-37 = tested on: Escherichia coli W160-37

In the case of CC[C@H](C)[C@H](NC(=O)[C@H](C)NC(=O)[C@@H]1CCCN1C(=O)[C@@H](NC(=O)[C@@H](NC(=O)[C@H](Cc1cnc[nH]1)NC(=O)[C@H](C)NC(=O)[C@H](C)NC(=O)[C@@H](NC(=O)[C@H](CCCCN)NC(=O)[C@H](C)NC(=O)[C@H](CC(C)C)NC(=O)[C@@H](NC(=O)CNC(=O)[C@H](Cc1ccccc1)NC(=O)[C@H](C)N)C(C)C)C(C)C)C(C)C)C(C)C)C(=O)N[C@@H](C)C(=O)N[C@@H](CCC(=O)O)C(=O)N[C@@H](Cc1cnc[nH]1)C(=O)N[C@@H](Cc1ccccc1)C(N)=O [AFGVLAKVAAHVVPAIAEHF], the MIC [1] is reported as ≥ 64 µM, the MIC [2] is reported as ≥ 64 µM and the MIC [3] is reported as ≥ 64 µM. The MIC [4] was ≥ 64 µM.
For CC[C@H](C)[C@H](NC(=O)[C@H](C)NC(=O)[C@H](CCCCN)NC(=O)CNC(=O)[C@@H](NC(=O)[C@H](Cc1cnc[nH]1)NC(=O)CNC(=O)[C@H](CC(C)C)NC(=O)[C@H](CC(C)C)NC(=O)[C@@H](NC(=O)CNC(=O)[C@@H](NC(=O)[C@H](CC(C)C)NC(=O)CN)C(C)C)[C@@H](C)O)[C@@H](C)CC)C(=O)N[C@@H](CC(C)C)C(=O)N[C@@H](CO)C(N)=O [GLVGTLLGHIGKAILS], the MIC [5] was ≥ 125 µM, the MIC [6] was ≥ 35.4 µM and the MIC [7] was ≥ 35.4 µM. For the same compound, the MIC [8] was ≥ 62.5 µM, the MIC [9] was 250 µM (≈ 387 µg/mL) and the MIC [10] was ≥ 62.5 µM. The MIC [11] was ≥ 62.5 µM, the MIC [12] was 16 µM (≈ 24.8 µg/mL) and the MIC [13] was 16 µM (≈ 24.8 µg/mL). For the same compound, the MIC [14] was ≥ 125 µM, the MIC [15] was 8 µM (≈ 12.4 µg/mL) and the MIC [16] was ≥ 50 µM. For the same compound, the MIC [17] was 8.8 µM (≈ 13.6 µg/mL), the MIC [18] was 31.3 µM (≈ 48.4 µg/mL) and the MIC [19] was ≥ 125 µM. For the same compound, the MIC [20] was 16 µM (≈ 24.8 µg/mL), the MIC [21] was ≥ 125 µM and the MIC [22] was ≥ 62.5 µM. It also gave an MIC [23] of 16 µM (≈ 24.8 µg/mL), an MIC [24] of 16 µM (≈ 24.8 µg/mL) and an MIC [25] of 16 µM (≈ 24.8 µg/mL). The MIC [26] was ≥ 125 µM, the MIC [27] was 62.5 µM (≈ 96.7 µg/mL) and the MIC [28] was 8.8 µM (≈ 13.6 µg/mL). The MIC [29] was 16 µM (≈ 24.8 µg/mL), the MIC [30] was ≥ 50 µM and the MIC [31] was 16 µM (≈ 24.8 µg/mL). For the same compound, the MIC [32] was 8 µM (≈ 12.4 µg/mL), the MIC [33] was 8 µM (≈ 12.4 µg/mL) and the MIC [34] was ≥ 62.5 µM. For the same compound, the MIC [35] was ≥ 62.5 µM and the MIC [36] was 250 µM (≈ 387 µg/mL).
For CC(C)C[C@H](NC(=O)[C@H](CCCCN)NC(=O)[C@H](CCCCN)NC(=O)[C@H](CC(C)C)NC(=O)[C@H](CC(C)C)NC(=O)[C@H](CCCCN)NC(=O)[C@H](CCCCN)NC(=O)[C@H](Cc1c[nH]c2ccccc12)NC(=O)[C@H](CC(C)C)NC(=O)[C@H](CCCCN)NC(=O)[C@H](CC(C)C)NC(=O)[C@H](CC(C)C)NC(=O)[C@H](CCCCN)NC(=O)[C@H](CCCCN)NC(=O)[C@H](CC(C)C)NC(=O)[C@H](CC(C)C)NC(=O)[C@@H](N)CCCCN)C(=O)N[C@@H](CCCCN)C(=O)O [KLLKKLLKLWKKLLKKLK], the MIC [37] was ≥ 44.2 µM, the MIC [38] was ≥ 44.2 µM and the MIC [39] was ≥ 44.2 µM. The MIC [40] was ≥ 44.2 µM.
CC[C@H](C)[C@H](NC(=O)[C@H](CCCCN)NC(=O)[C@@H]1CCCN1C(=O)[C@H](CC(C)C)NC(=O)[C@H](Cc1ccccc1)NC(=O)[C@H](CC(N)=O)NC(=O)[C@H](C)NC(=O)[C@H](C)NC(=O)[C@H](CC(C)C)NC(=O)CNC(=O)[C@H](C)NC(=O)[C@H](CC(C)C)NC(=O)[C@@H](N)CC(C)C)C(=O)N[C@@H](Cc1ccccc1)C(=O)N[C@@H](CS)C(=O)N[C@@H](CCCCN)C(=O)N[C@H](C(=O)N[C@H](C(=O)N[C@@H](CCCN=C(N)N)C(=O)N[C@@H](CCCCN)C(=O)N[C@@H](CS)C(N)=O)[C@@H](C)O)[C@@H](C)CC [LLAGLAANFLPKIFCKITRKC] was tested, and the MIC [41] was ≥ 43.1 µM, the MIC [42] was 5.39 µM (≈ 12.5 µg/mL) and the MIC [43] was 2.69 µM (≈ 6.25 µg/mL). For the same compound, the MIC [44] was 5.39 µM (≈ 12.5 µg/mL), the MIC [45] was 5.39 µM (≈ 12.5 µg/mL) and the MIC (Staphylococcus aureus) was 10.8 µM (≈ 25 µg/mL). For the same compound, the MIC [46] was 2.69 µM (≈ 6.25 µg/mL).
CC[C@H](C)[C@H](NC(=O)[C@@H]1CCCN1C(=O)[C@H](CC(C)C)NC(=O)[C@@H](N)CC(C)C)C(=O)N[C@H](C(=O)N[C@H](C(=O)N[C@@H](CC(N)=O)C(=O)N[C@@H](CC(C)C)C(=O)N[C@@H](CC(C)C)C(=O)N[C@@H](CCCCN)C(=O)N[C@@H](CO)C(=O)N[C@@H](CC(C)C)C(=O)N[C@@H](CC(C)C)C(=O)O)C(C)C)C(C)C [LLPIVVNLLKSLL] showed an MIC [47] of 13.9 µM (≈ 20 µg/mL) and an MIC [48] of 6.97 µM (≈ 10 µg/mL).
With CC[C@H](C)[C@H](NC(=O)[C@H](Cc1c[nH]c2ccccc12)NC(=O)[C@H](CCCCN)NC(=O)[C@H](CO)NC(=O)[C@H](CC(C)C)NC(=O)[C@H](Cc1ccccc1)NC(=O)[C@@H](NC(=O)[C@H](CCCCN)NC(=O)[C@H](CC(C)C)NC(=O)[C@H](CCCCN)NC(=O)[C@@H]1CCCN1)[C@@H](C)O)C(=O)NCC(=O)O [PKLKTFLSKWIG] the MIC (Staphylococcus aureus) was 107 µM (≈ 152 µg/mL) and the MIC (Escherichia coli W160-37) was ≥ 107 µM.
